Laboratory results taken from patent US10233200B2, “Organomodified monosilyl compound, its preparation and applications thereof” (Momentive Performance Materials Inc., priority 2017, dated 2019).

Columns and labels:
canola leaf = experiment: Uptake of [C14]-2,4-D DMA salt into canola leaf; type: in vivo; conditions: no adjuvant compound (0 % wt/vol), 2,4-D alone
Description: The uptake of [C^14]-2,4-dichlorophenoxyacetic acid, dimethylamine salt (2,4-D DMA salt) (1% a.e./100 L/ha) was determined in canola at 2 HAT and 24 HAT (Hours After Treatment) according to the method described by Lui, in Pro. 18th Asian-Pacific Weed Sci. Soc. Conf., pp. 561-566. Liu, Z Q; 2001.

[1] = Spreading of a 10 μL droplet of surfactant solution on polystyrene Petri dishes; type: physicochemical; conditions: 10 μL droplet on polystyrene, after 30 seconds, 22 to 25° C., RH 50-70%
Description: Spreading was determined by applying a 10 μL droplet, of surfactant solution to polystyrene Petri dishes (Fisher Scientific) and measuring the spread diameter (mm) after 30 seconds, at a relative humidity between 50 and 70% (at 22 to 25° C.). The solution was applied with an automatic pipette to provide droplets of reproducible volume. Deionized water that was further purified with a Millipore filtration system was used to prepare the surfactant solutions.

Row | Molecule | Uptake % (2 HAT) (canola leaf; 2 HAT) | Uptake % (24 HAT) (canola leaf; 24 HAT) | Spread Diameter ([1]; 0.05 weight % compound) | Spread Diameter ([1]; 0.1 weight % compound) | Spread Diameter ([1]; 0.2 weight % compound)
1 | CNC.O=C(O)COc1ccc(Cl)cc1Cl [2,4-D alone, 2,4-dichlorophenoxyacetic acid, dimethylamine salt] | 12.1e % | 70.2 a % | – | – | –
2 | (H3C)3CCH2CH2—Si(CH3)2—CH2CH2CH2—O—CH2CH(OH)CH2N^+(CH3)2—CH2CH2CH2OH [Ex. 8, (H3C)3CCH2CH2—Si(CH3)2—CH2CH2CH2—O—CH2CH(OH)CH2N^+(CH3)2—CH2CH2CH2OH [(CH2OH)2(CH3)C—COO^−]] | – | – | 10 mm | 21 mm | 33 mm
